Assay results: patent publication US11214594B2, “Antimicrobial peptide having synergistic antibacterial effect with antibiotics on multidrug resistant bacteria, and use thereof” (priority 2016, dated 2022)
≈ marks a conversion by molar mass, not a printed value. Where a SMILES comes first, the peptide text is derived from it.

Legend:
MDRST 8009 = type: cell-based, Salmonella typhimurium; conditions: agent alone
Procedure, shortened: (§1)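 Broth microdilution in MH medium: bacterial strains diluted to 2×10^6 CFU were mixed with equal volumes of peptide serially diluted twofold in MH medium.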

E. coli [1] = assay: microbe, parasite or virus in culture; type: cell-based, Escherichia coli; conditions: for Minimal inhibitory concentration MIC: 16 h
Procedure, shortened: as §1

MDREC 1229 = assay: microbe, parasite or virus in culture; type: cell-based, Escherichia coli
Procedure, shortened: as §1

E. coli [2] = assay: MIC of antibiotic during combined treatment with antimicrobial peptide; type: cell-based, Escherichia coli; conditions: for Synergistic effect of antibacterial activity with existing antibiotics compared with PapMA-1: E. coli and MDREC1229; for Antibiotic MIC, Erythromycin / Antibiotic MIC, Linezolid / Antibiotic MIC, Vancomycin: E. coli
Procedure, shortened: (§2)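 First, antibiotic solution is diluted with MH medium; next, the dilution is dispensed into wells containing peptide; finally, the orientation is swapped and MIC of each mixture determined.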

A. baumannii = assay: as above; type: cell-based, Acinetobacter baumannii; conditions: for Antibiotic MIC, Erythromycin / Antibiotic MIC, Linezolid / Antibiotic MIC, Vancomycin: A. baumannii
Procedure, shortened: as §2

gram-negative bacteria = assay: MIC, summary statements for gram-negative bacteria; type: cell-based
Procedure, shortened: as §1

[3] = erythromycin combined with peptide at 1 μg/ml
[4] = erythromycin combined with peptide at 2 μg/ml
[5] = erythromycin combined with peptide at 4 μg/ml
[6] = erythromycin combined with peptide at 6 μg/ml
[7] = erythromycin combined with peptide at 8 μg/ml
[8] = erythromycin combined with peptide at 16 μg/ml
[9] = erythromycin combined with peptide at 32 μg/ml
[10] = erythromycin combined with peptide at 64 μg/ml
[11] = linezolid combined with peptide at 1 μg/ml
[12] = linezolid combined with peptide at 2 μg/ml
[13] = linezolid combined with peptide at 4 μg/ml
[14] = linezolid combined with peptide at 6 μg/ml
[15] = linezolid combined with peptide at 8 μg/ml
[16] = linezolid combined with peptide at 16 μg/ml
[17] = linezolid combined with peptide at 32 μg/ml
[18] = linezolid combined with peptide at 64 μg/ml
[19] = vancomycin combined with peptide at 1 μg/ml
[20] = vancomycin combined with peptide at 2 μg/ml
[21] = vancomycin combined with peptide at 4 μg/ml
[22] = vancomycin combined with peptide at 6 μg/ml
[23] = vancomycin combined with peptide at 8 μg/ml
[24] = vancomycin combined with peptide at 16 μg/ml
[25] = vancomycin combined with peptide at 32 μg/ml
[26] = vancomycin combined with peptide at 64 μg/ml
[27] = combined with peptide at 1 μg/ml
[28] = combined with peptide at 2 μg/ml
[29] = combined with peptide at 4 μg/ml
[30] = combined with peptide at 6 μg/ml
[31] = combined with peptide at 8 μg/ml
[32] = combined with peptide at 16 μg/ml
[33] = combined with peptide at 32 μg/ml
[34] = combined with peptide at 64 μg/ml

## CC[C@H](C)[C@H](NC(=O)[C@H](CCCCN)NC(=O)[C@H](Cc1c[nH]c2ccccc12)NC(=O)[C@@H](N)CCCNC(=N)N)C(=O)N[C@@H](Cc1ccccc1)C(=O)N[C@@H](CCCCN)C(=O)N[C@@H](CCCCN)C(=O)N[C@H](C(=O)N1CCC[C@H]1C(=O)N[C@@H](CCCCN)C(=O)N[C@@H](Cc1ccccc1)C(=O)N[C@@H](CC(C)C)C(=O)N[C@@H](Cc1c[nH]cn1)C(=O)N[C@@H](CO)C(=O)N[C@@H](Cc1c[nH]c2ccccc12)C(=O)N[C@@H](CCCCN)C(=O)N[C@@H](CCCCN)C(=O)N[C@@H](Cc1c[nH]c2ccccc12)C(N)=O)[C@@H](C)CC [PapMA-4, RWK IFK KIP KFL HSW KKW-NH2] (H-RWKIFKKIPKFLHSWKKW-NH2; N-terminus assumed)
MDRST 8009
  Minimal inhibitory concentration MIC: 32 µg/mL (≈ 13 µM)
E. coli [1]
  Minimal inhibitory concentration MIC: 16 µg/mL (≈ 6.51 µM)
MDREC 1229
  Minimal inhibitory concentration MIC: 32 µg/mL (≈ 13 µM)
E. coli [2]
  Synergistic effect of antibacterial activity with existing antibiotics compared with PapMA-1: level similar to that of the PapMA-1 peptide
E. coli [2]; [3]
  Antibiotic MIC, Erythromycin: 64 µg/mL
E. coli [2]; [4]
  Antibiotic MIC, Erythromycin: 32 µg/mL
E. coli [2]; [5]
  Antibiotic MIC, Erythromycin: 16 µg/mL
E. coli [2]; [6]
  Antibiotic MIC, Erythromycin: 8 µg/mL
E. coli [2]; [7]
  Antibiotic MIC, Erythromycin: 8 µg/mL
E. coli [2]; [8]
  Antibiotic MIC, Erythromycin: 0 µg/mL
E. coli [2]; [9]
  Antibiotic MIC, Erythromycin: 0 µg/mL
E. coli [2]; [10]
  Antibiotic MIC, Erythromycin: 0 µg/mL
E. coli [2]; [11]
  Antibiotic MIC, Linezolid: 128 µg/mL
E. coli [2]; [12]
  Antibiotic MIC, Linezolid: 64 µg/mL
E. coli [2]; [13]
  Antibiotic MIC, Linezolid: 32 µg/mL
E. coli [2]; [14]
  Antibiotic MIC, Linezolid: 32 µg/mL
E. coli [2]; [15]
  Antibiotic MIC, Linezolid: 16 µg/mL
E. coli [2]; [16]
  Antibiotic MIC, Linezolid: 0 µg/mL
E. coli [2]; [17]
  Antibiotic MIC, Linezolid: 0 µg/mL
E. coli [2]; [18]
  Antibiotic MIC, Linezolid: 0 µg/mL
E. coli [2]; [19]
  Antibiotic MIC, Vancomycin: >128 µg/mL
E. coli [2]; [20]
  Antibiotic MIC, Vancomycin: >128 µg/mL
E. coli [2]; [21]
  Antibiotic MIC, Vancomycin: >128 µg/mL
E. coli [2]; [22]
  Antibiotic MIC, Vancomycin: 128 µg/mL
E. coli [2]; [23]
  Antibiotic MIC, Vancomycin: 32 µg/mL
E. coli [2]; [24]
  Antibiotic MIC, Vancomycin: 0 µg/mL
E. coli [2]; [25]
  Antibiotic MIC, Vancomycin: 0 µg/mL
E. coli [2]; [26]
  Antibiotic MIC, Vancomycin: 0 µg/mL
A. baumannii; [27]
  Antibiotic MIC, Erythromycin: 32 µg/mL
  Antibiotic MIC, Linezolid: >128 µg/mL
  Antibiotic MIC, Vancomycin: >128 µg/mL
A. baumannii; [28]
  Antibiotic MIC, Erythromycin: 16 µg/mL
  Antibiotic MIC, Linezolid: 64 µg/mL
  Antibiotic MIC, Vancomycin: 128 µg/mL
A. baumannii; [29]
  Antibiotic MIC, Erythromycin: 8 µg/mL
  Antibiotic MIC, Linezolid: 64 µg/mL
  Antibiotic MIC, Vancomycin: 64 µg/mL
A. baumannii; [30]
  Antibiotic MIC, Erythromycin: 4 µg/mL
  Antibiotic MIC, Linezolid: 32 µg/mL
  Antibiotic MIC, Vancomycin: 64 µg/mL
A. baumannii; [31]
  Antibiotic MIC, Erythromycin: 4 µg/mL
  Antibiotic MIC, Linezolid: 16 µg/mL
  Antibiotic MIC, Vancomycin: 32 µg/mL
A. baumannii; [32]
  Antibiotic MIC, Erythromycin: 0 µg/mL
  Antibiotic MIC, Linezolid: 0 µg/mL
  Antibiotic MIC, Vancomycin: 0 µg/mL
A. baumannii; [33]
  Antibiotic MIC, Erythromycin: 0 µg/mL
  Antibiotic MIC, Linezolid: 0 µg/mL
  Antibiotic MIC, Vancomycin: 0 µg/mL
A. baumannii; [34]
  Antibiotic MIC, Erythromycin: 0 µg/mL
  Antibiotic MIC, Linezolid: 0 µg/mL
  Antibiotic MIC, Vancomycin: 0 µg/mL
gram-negative bacteria; gram-negative bacteria
  Antibacterial activity (in words): comparable to papiliocin or melittin

## CC[C@H](C)[C@H](NC(=O)[C@H](CCCCN)NC(=O)[C@H](Cc1c[nH]c2ccccc12)NC(=O)[C@@H](N)CCCNC(=N)N)C(=O)N[C@@H](Cc1ccccc1)C(=O)N[C@@H](CCCCN)C(=O)N[C@@H](CCCCN)C(=O)N[C@H](C(=O)N1CCC[C@H]1C(=O)N[C@@H](CCCCN)C(=O)N[C@@H](CC(C)C)C(=O)N[C@@H](CC(C)C)C(=O)N[C@@H](Cc1c[nH]cn1)C(=O)N[C@@H](CO)C(=O)N[C@@H](Cc1ccccc1)C(=O)N[C@@H](CCCCN)C(=O)N[C@@H](CCCCN)C(=O)N[C@@H](Cc1ccccc1)C(N)=O)[C@@H](C)CC [PapMA-7, RWK IFK KIP KLL HSF KKF-NH2] (H-RWKIFKKIPKLLHSFKKF-NH2; N-terminus assumed)
MDRST 8009
  Minimal inhibitory concentration MIC: 32 µg/mL (≈ 13.7 µM)
E. coli [1]
  Minimal inhibitory concentration MIC: 32 µg/mL (≈ 13.7 µM)
E. coli [1]; E. coli
  Antibacterial activity relative to PapMA-1: at least twice as high
MDREC 1229
  Minimal inhibitory concentration MIC: 64 µg/mL (≈ 27.3 µM)
E. coli [2]
  Synergistic effect of antibacterial activity with existing antibiotics compared with PapMA-1: higher level than the PapMA-1 peptide
E. coli [2]; [3]
  Antibiotic MIC, Erythromycin: 64 µg/mL
E. coli [2]; [4]
  Antibiotic MIC, Erythromycin: 32 µg/mL
E. coli [2]; [5]
  Antibiotic MIC, Erythromycin: 4 µg/mL
E. coli [2]; [6]
  Antibiotic MIC, Erythromycin: 2 µg/mL
E. coli [2]; [7]
  Antibiotic MIC, Erythromycin: 0.25 µg/mL
E. coli [2]; [8]
  Antibiotic MIC, Erythromycin: 0.125 µg/mL
E. coli [2]; [9]
  Antibiotic MIC, Erythromycin: 0 µg/mL
E. coli [2]; [10]
  Antibiotic MIC, Erythromycin: 0 µg/mL
E. coli [2]; [11]
  Antibiotic MIC, Linezolid: >128 µg/mL
E. coli [2]; [12]
  Antibiotic MIC, Linezolid: 128 µg/mL
E. coli [2]; [13]
  Antibiotic MIC, Linezolid: 8 µg/mL
E. coli [2]; [14]
  Antibiotic MIC, Linezolid: 4 µg/mL
E. coli [2]; [15]
  Antibiotic MIC, Linezolid: 4 µg/mL
E. coli [2]; [16]
  Antibiotic MIC, Linezolid: 1 µg/mL
E. coli [2]; [17]
  Antibiotic MIC, Linezolid: 0 µg/mL
E. coli [2]; [18]
  Antibiotic MIC, Linezolid: 0 µg/mL
E. coli [2]; [19]
  Antibiotic MIC, Vancomycin: >128 µg/mL
E. coli [2]; [20]
  Antibiotic MIC, Vancomycin: 128 µg/mL
E. coli [2]; [21]
  Antibiotic MIC, Vancomycin: 32 µg/mL
E. coli [2]; [22]
  Antibiotic MIC, Vancomycin: 8 µg/mL
E. coli [2]; [23]
  Antibiotic MIC, Vancomycin: 4 µg/mL
E. coli [2]; [24]
  Antibiotic MIC, Vancomycin: 1 µg/mL
E. coli [2]; [25]
  Antibiotic MIC, Vancomycin: 0 µg/mL
E. coli [2]; [26]
  Antibiotic MIC, Vancomycin: 0 µg/mL
A. baumannii; A. baumannii and MDRAB 12035
  Synergistic effect of antibacterial activity with existing antibiotics compared with PapMA-1: higher level than the PapMA-1 peptide
A. baumannii; [27]
  Antibiotic MIC, Erythromycin: 16 µg/mL
  Antibiotic MIC, Linezolid: 128 µg/mL
  Antibiotic MIC, Vancomycin: >128 µg/mL
A. baumannii; [28]
  Antibiotic MIC, Erythromycin: 8 µg/mL
  Antibiotic MIC, Linezolid: 32 µg/mL
  Antibiotic MIC, Vancomycin: 64 µg/mL
A. baumannii; [29]
  Antibiotic MIC, Erythromycin: 2 µg/mL
  Antibiotic MIC, Linezolid: 8 µg/mL
  Antibiotic MIC, Vancomycin: 16 µg/mL
A. baumannii; [30]
  Antibiotic MIC, Erythromycin: 1 µg/mL
  Antibiotic MIC, Linezolid: 2 µg/mL
  Antibiotic MIC, Vancomycin: 4 µg/mL
A. baumannii; [31]
  Antibiotic MIC, Erythromycin: 0.125 µg/mL
  Antibiotic MIC, Linezolid: 1 µg/mL
  Antibiotic MIC, Vancomycin: 2 µg/mL
A. baumannii; [32]
  Antibiotic MIC, Erythromycin: 0 µg/mL
  Antibiotic MIC, Linezolid: 0 µg/mL
  Antibiotic MIC, Vancomycin: 0 µg/mL
A. baumannii; [33]
  Antibiotic MIC, Erythromycin: 0 µg/mL
  Antibiotic MIC, Linezolid: 0 µg/mL
  Antibiotic MIC, Vancomycin: 0 µg/mL
A. baumannii; [34]
  Antibiotic MIC, Erythromycin: 0 µg/mL
  Antibiotic MIC, Linezolid: 0 µg/mL
  Antibiotic MIC, Vancomycin: 0 µg/mL
gram-negative bacteria; most of the gram-negative bacteria
  Antibacterial activity relative to PapMA-1, PapMA-2, PapMA-3 and PapMA-4: same or higher
